Patent US11136296B2, “Substituted N-arylethyl-2-arylquinoline-4-carboxamides and use thereof” (Bayer Aktiengesellschaft, priority 2017, dated 2021)

Target: FP receptor (Homo sapiens (Human), UniProt P43088)
Test: In vitro test of inhibition of human FP receptor activity (PGF2α-induced calcium flux in FP-expressing CHEM1 cells)
Format: cell-based
Details: PGF2α-induced (2 nM) calcium flux in FP-expressing CHEM1 cells; some as mean values from multiple determinations
Source text: Table 1 below lists the IC50 values from this assay for individual working examples of the invention (some as mean values from multiple independent individual determinations): […]

Sequence of FP receptor (P43088 whole entry): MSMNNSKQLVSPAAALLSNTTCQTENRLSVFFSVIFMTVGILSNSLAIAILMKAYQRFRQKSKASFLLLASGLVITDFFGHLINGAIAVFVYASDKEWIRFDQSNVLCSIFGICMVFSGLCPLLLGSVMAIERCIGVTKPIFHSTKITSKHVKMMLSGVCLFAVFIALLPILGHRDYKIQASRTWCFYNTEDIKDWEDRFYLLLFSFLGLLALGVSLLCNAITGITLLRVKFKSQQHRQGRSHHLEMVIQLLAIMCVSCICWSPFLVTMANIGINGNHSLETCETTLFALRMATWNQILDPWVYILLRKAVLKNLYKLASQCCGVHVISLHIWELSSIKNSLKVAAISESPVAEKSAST

## Cc1c(-c2ccccc2)nc2ccc(Br)cc2c1C(=O)NCC(C(=O)O)c1ccccc1 (racemic) [Example 1, (+/−)-3-{[(6-Bromo-3-methyl-2-phenylquinolin-4-yl)carbonyl]amino}-2-phenylpropanoic Acid]
  IC50: 0.13 µM

## COc1ccccc1C(CNC(=O)c1c(C)c(-c2ccccc2)nc2ccc(Br)cc12)C(=O)O (racemic) [Example 7, (+/−)-3-{[(6-Bromo-3-methyl-2-phenylquinolin-4-yl)carbonyl]amino}-2-(2-methoxyphenyl)propanoic Acid]
  IC50: 0.024 µM

## Cc1c(-c2ccccc2)nc2ccc(Br)cc2c1C(=O)NCC(C(=O)O)c1ccc(F)cc1 (racemic) [Example 10, (+/−)-3-{[(6-Bromo-3-methyl-2-phenylquinolin-4-yl)carbonyl]amino}-2-(4-fluorophenyl)propanoic Acid]
  IC50: 0.32 µM

## Cc1c(-c2ccccc2)nc2ccc(Br)cc2c1C(=O)NCC(C)(C(=O)O)c1ccccc1 (racemic) [Example 13, (+/−)-3-{[(6-Bromo-3-methyl-2-phenylquinolin-4-yl)carbonyl]amino}-2-methyl-2-phenylpropanoic Acid]
  IC50: 0.094 µM

## CCC(CNC(=O)c1c(C)c(-c2ccccc2)nc2ccc(Br)cc12)(C(=O)O)c1ccccc1 (racemic) [Example 16, (+/−)-2-({[(6-Bromo-3-methyl-2-phenylquinolin-4-yl)carbonyl]amino}methyl)-2-phenylbutanoic Acid]
  IC50: 0.17 µM

## Cc1c(-c2ccccc2)nc2ccc(Br)cc2c1C(=O)NCC(O)(C(=O)O)c1ccccc1 (racemic) [Example 19, (+/−)-3-{[(6-Bromo-3-methyl-2-phenylquinolin-4-yl)carbonyl]amino}-2-hydroxy-2-phenylpropanoic Acid]
  IC50: 0.15 µM

## Cc1c(-c2ccccc2)nc2ccc(Br)cc2c1C(=O)NCC(C(=O)O)c1cccc(C(F)(F)F)c1 (racemic) [Example 22, (+/−)-3-{[(6-Bromo-3-methyl-2-phenylquinolin-4-yl)carbonyl]amino}-2-[3-(trifluoromethyl)phenyl]propanoic Acid]
  IC50: 0.076 µM

## Cc1c(-c2ccccc2)nc2ccc(Br)cc2c1C(=O)NCC(C(=O)O)c1ccc2c(c1)OCO2 (racemic) [Example 23, (+/−)-2-(1,3-Benzodioxol-5-yl)-3-{[(6-bromo-3-methyl-2-phenylquinolin-4-yl)carbonyl]amino}propanoic Acid]
  IC50: 0.53 µM

## Cc1c(-c2ccccc2)nc2ccc(Br)cc2c1C(=O)NCC(C)(C(=O)O)c1ncccc1Cl (racemic) [Example 26, (+/−)-3-{[(6-Bromo-3-methyl-2-phenylquinolin-4-yl)carbonyl]amino}-2-(3-chloropyridin-2-yl)-2-methylpropanoic Acid]
  IC50: 0.044 µM

## Cc1c(-c2ccccc2)nc2ccc(Br)cc2c1C(=O)NCC(C)(C(=O)O)c1ccccc1F (racemic) [Example 29, (+/−)-3-{[(6-Bromo-3-methyl-2-phenylquinolin-4-yl)carbonyl]amino}-2-(2-fluorophenyl)-2-methylpropanoic Acid]
  IC50: 0.14 µM

## Cc1c(-c2ccccc2)nc2ccc(Br)cc2c1C(=O)NCC(C)(C(=O)O)c1c(F)cccc1F (racemic) [Example 32, (+/−)-3-{[(6-Bromo-3-methyl-2-phenylquinolin-4-yl)carbonyl]amino}-2-(2,6-difluorophenyl)-2-methylpropanoic Acid]
  IC50: 0.15 µM

## Cc1c(-c2ccccc2)nc2ccc(Br)cc2c1C(=O)NCC(C)(C(=O)O)c1ccccc1Cl (racemic) [Example 35, (+/−)-3-{[(6-Bromo-3-methyl-2-phenylquinolin-4-yl)carbonyl]amino}-2-(2-chlorophenyl)-2-methylpropanoic Acid]
  IC50: 0.19 µM

## Cc1c(-c2ccccc2)nc2ccc(Br)cc2c1C(=O)NCC(F)(C(=O)O)c1ccccc1 (racemic) [Example 38, (+/−)-3-{[(6-Bromo-3-methyl-2-phenylquinolin-4-yl)carbonyl]amino}-2-fluoro-2-phenylpropanoic Acid]
  IC50: 0.047 µM

## Cc1c(-c2ccccc2)nc2ccc(Br)cc2c1C(=O)NCC(C)(C(=O)O)c1cccc(C(F)(F)F)c1 (racemic) [Example 41, (+/−)-3-{[(6-Bromo-3-methyl-2-phenylquinolin-4-yl)carbonyl]amino}-2-methyl-2-[3-(trifluoromethyl)phenyl]propanoic Acid]
  IC50: 0.13 µM

## COc1cccc(C(CNC(=O)c2c(C)c(-c3ccccc3)nc3ccc(Br)cc23)C(=O)O)c1 (racemic) [Example 44, (+/−)-3-{[(6-Bromo-3-methyl-2-phenylquinolin-4-yl)carbonyl]amino}-2-(3-methoxyphenyl)propanoic Acid]
  IC50: 0.19 µM

## Cc1c(-c2ccccc2)nc2ccc(Br)cc2c1C(=O)NCC(C(=O)O)c1cccc(Cl)c1 (racemic) [Example 47, (+/−)-3-{[(6-Bromo-3-methyl-2-phenylquinolin-4-yl)carbonyl]amino}-2-(3-chlorophenyl)propanoic Acid]
  IC50: 0.043 µM

## Cc1cccc(C(CNC(=O)c2c(C)c(-c3ccccc3)nc3ccc(Br)cc23)C(=O)O)c1 (racemic) [Example 50, (+/−)-3-{[(6-Bromo-3-methyl-2-phenylquinolin-4-yl)carbonyl]amino}-2-(3-methylphenyl)propanoic Acid]
  IC50: 0.079 µM

## COc1ccccc1C(O)(CNC(=O)c1c(C)c(-c2ccccc2)nc2ccc(Br)cc12)C(=O)O (racemic) [Example 53, (+/−)-3-{[(6-Bromo-3-methyl-2-phenylquinolin-4-yl)carbonyl]amino}-2-hydroxy-2-(2-methoxyphenyl)propanoic Acid]
  IC50: 0.18 µM

## COc1cccc(F)c1C(CNC(=O)c1c(C)c(-c2ccccc2)nc2ccc(Br)cc12)C(=O)O (racemic) [Example 56, (+/−)-3-{[(6-Bromo-3-methyl-2-phenylquinolin-4-yl)carbonyl]amino}-2-(2-fluoro-6-methoxyphenyl)propanoic Acid]
  IC50: 0.021 µM

## Cc1c(-c2ccccc2)nc2ccc(Br)cc2c1C(=O)NCC(CC(=O)O)c1ccccc1 (racemic) [Example 63, (+/−)-4-{[(6-Bromo-3-methyl-2-phenylquinolin-4-yl)carbonyl]amino}-3-phenylbutanoic Acid]
  IC50: 0.34 µM

## Cc1c(-c2ccccc2)nc2ccc(Br)cc2c1C(=O)NCC(CC(=O)O)c1ccc(Cl)cc1 (racemic) [Example 66, (+/−)-4-{[(6-Bromo-3-methyl-2-phenylquinolin-4-yl)carbonyl]amino}-3-(4-chlorophenyl)butanoic Acid]
  IC50: 0.5 µM

## Cc1c(-c2ccccc2)nc2ccc(Br)cc2c1C(=O)NCC(CC(=O)O)c1cccc(Cl)c1 (racemic) [Example 72, (+/−)-4-{[(6-Bromo-3-methyl-2-phenylquinolin-4-yl)carbonyl]amino}-3-(3-chlorophenyl)butanoic Acid]
  IC50: 0.045 µM

## Cc1ccccc1C(CNC(=O)c1c(C)c(-c2ccccc2)nc2ccc(Br)cc12)CC(=O)O (racemic) [Example 75, (+/−)-4-{[(6-Bromo-3-methyl-2-phenylquinolin-4-yl)carbonyl]amino}-3-(2-methylphenyl)butanoic Acid]
  IC50: 0.069 µM

## Cc1c(-c2ccccc2)nc2ccc(Br)cc2c1C(=O)NCC(CC(=O)O)c1c(Cl)cccc1Cl (racemic) [Example 78, (+/−)-4-{[(6-Bromo-3-methyl-2-phenylquinolin-4-yl)carbonyl]amino}-3-(2,6-dichlorophenyl)butanoic Acid]
  IC50: 0.1 µM

## Cc1c(-c2ccccc2)nc2ccc(Br)cc2c1C(=O)NCC(C)(CC(=O)O)c1ncccc1Cl (racemic) [Example 84, (+/−)-4-{[(6-Bromo-3-methyl-2-phenylquinolin-4-yl)carbonyl]amino}-3-(3-chloropyridin-2-yl)-3-methylbutanoic Acid]
  IC50: 0.016 µM

## Cc1c(-c2ccccc2)nc2ccc(Br)cc2c1C(=O)NCC(CC(=O)O)c1c(F)cccc1Cl (racemic) [Example 87, (+/−)-4-{[(6-Bromo-3-methyl-2-phenylquinolin-4-yl)carbonyl]amino}-3-(2-chloro-6-fluorophenyl)butanoic Acid]
  IC50: 0.023 µM

## Cc1ccc(C(CNC(=O)c2c(C)c(-c3ccccc3)nc3ccc(Br)cc23)CC(=O)O)cc1 (racemic) [Example 90, (+/−)-4-{[(6-Bromo-3-methyl-2-phenylquinolin-4-yl)carbonyl]amino}-3-(4-methylphenyl)butanoic Acid]
  IC50: 0.47 µM

## Cc1cccc(C(CNC(=O)c2c(C)c(-c3ccccc3)nc3ccc(Br)cc23)CC(=O)O)c1 (racemic) [Example 93, (+/−)-4-{[(6-Bromo-3-methyl-2-phenylquinolin-4-yl)carbonyl]amino}-3-(3-methylphenyl)butanoic Acid]
  IC50: 0.08 µM

## Cc1c(-c2ccccc2)nc2ccc(Br)cc2c1C(=O)NCC(CC(=O)O)c1ccccc1OC(F)(F)F (racemic) [Example 99, (+/−)-4-{[(6-Bromo-3-methyl-2-phenylquinolin-4-yl)carbonyl]amino}-3-[2-(trifluoromethoxy)phenyl]butanoic Acid]
  IC50: 0.028 µM

## Cc1c(-c2ccccc2)nc2ccc(Br)cc2c1C(=O)NCC(CC(=O)O)c1ccccn1 (racemic) [Example 102, (+/−)-4-{[(6-Bromo-3-methyl-2-phenylquinolin-4-yl)carbonyl]amino}-3-(pyridin-2-yl)butanoic Acid]
  IC50: 0.46 µM

## Cc1c(-c2ccccc2)nc2ccc(Br)cc2c1C(=O)NCC(CC(=O)O)c1ccccc1C(F)(F)F (racemic) [Example 105, (+/−)-4-{[(6-Bromo-3-methyl-2-phenylquinolin-4-yl)carbonyl]amino}-3-[2-(trifluoromethyl)phenyl]butanoic Acid]
  IC50: 0.092 µM

## COc1cccnc1C(CNC(=O)c1c(C)c(-c2ccccc2)nc2ccc(Br)cc12)CC(=O)O (racemic) [Example 108, (+/−)-4-{[(6-Bromo-3-methyl-2-phenylquinolin-4-yl)carbonyl]amino}-3-(3-methoxypyridin-2-yl)butanoic Acid]
  IC50: 0.078 µM

## Cc1c(-c2ccccc2)nc2ccc(Br)cc2c1C(=O)NCC(c1ccccc1Cl)C(C)(C)C(=O)O (racemic) [Example 111, (+/−)-4-{[(6-Bromo-3-methyl-2-phenylquinolin-4-yl)carbonyl]amino}-3-(2-chlorophenyl)-2,2-dimethylbutanoic Acid]
  IC50: 0.089 µM
